Laboratory results reported in patent US11673898B2, “Substituted inhibitors of menin-MLL and methods of use” (Kura Oncology, Inc., priority 2016, dated 2023).

Molecular target: T1, Menin MLL 4-43 (Homo sapiens, UniProt O00255)
T1 sequence (O00255 1-610): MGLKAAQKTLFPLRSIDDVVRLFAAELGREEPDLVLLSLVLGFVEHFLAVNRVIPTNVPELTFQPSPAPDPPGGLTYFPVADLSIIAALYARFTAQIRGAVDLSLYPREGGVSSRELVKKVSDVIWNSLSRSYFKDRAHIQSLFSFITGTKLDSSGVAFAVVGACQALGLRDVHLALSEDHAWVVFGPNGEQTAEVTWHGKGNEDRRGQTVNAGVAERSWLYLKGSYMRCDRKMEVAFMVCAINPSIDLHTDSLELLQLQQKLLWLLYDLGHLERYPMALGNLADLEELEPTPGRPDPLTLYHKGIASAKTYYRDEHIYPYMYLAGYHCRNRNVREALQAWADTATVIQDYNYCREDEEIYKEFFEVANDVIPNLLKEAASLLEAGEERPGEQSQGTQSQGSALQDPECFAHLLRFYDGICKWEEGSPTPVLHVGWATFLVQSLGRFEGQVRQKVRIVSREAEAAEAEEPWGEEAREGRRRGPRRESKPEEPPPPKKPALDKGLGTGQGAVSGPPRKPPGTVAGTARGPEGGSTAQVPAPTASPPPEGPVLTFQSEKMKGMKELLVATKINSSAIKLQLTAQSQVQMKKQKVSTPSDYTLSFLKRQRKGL
Experiment: Fluorescence polarization (FP) competition assay of the menin-MLL interaction
Format: binding
Settings: fluorescence polarization assay; read-out: Menin MLL 4-43 IC50

| Structure (SMILES) | IC50 |
| --- | --- |
| [2H]C1([2H])N([C@@H](C)Cn2c(C#N)cc3c(C)c(CN4CCC(Nc5ncnc6sc(CC(F)(F)F)cc56)CC4)ccc32)C([2H])([2H])C([2H])([2H])N(S(C)(=O)=O)C1([2H])[2H] [Compound 153] | 0.05 to 0.25 µM |
| Cc1c(CN2CCC(Nc3ncnc4sc(CC(F)(F)F)cc34)CC2)ccc2c1cc(C#N)n2C[C@H](C)N1CCN(CC(N)=O)CC1 [Compound 154] | < 0.05 µM |
| Cc1c(CN2CCC(Nc3ncnc4sc(CC(F)(F)F)cc34)CC2)ccc2c1cc(C#N)n2C[C@H](C)N1CCN(C(C)C(N)=O)CC1 (some centres unmarked) [Compound 156] | 0.05 to 0.25 µM |
| Cc1c(CN2CCC(Nc3ncnc4sc(CC(F)(F)F)cc34)CC2)ccc2c1cc(C#N)n2C[C@H](C)N1CCC(NP(C)(C)=O)CC1 [Compound 157] | 0.02 to 1 µM |
| Cc1c(CN2CCC(Nc3nc(N)nc4sc(CC(F)(F)F)cc34)CC2)ccc2c1cc(C#N)n2C[C@H](C)N1CCC(S(C)(=O)=O)CC1 [Compound 158] | < 0.05 µM |
| C[C@@H](Cn1c(C#N)cc2cc(CN3CCC(Nc4ncnc5sc(CC(F)(F)F)cc45)CC3)c(O)cc21)N1CCN(C=O)CC1 [Compound 159] | 0.05 to 0.25 µM |
| C[C@@H](Cn1c(C#N)cc2cc(CN3CCC(Nc4ncnc5sc(CC(F)(F)F)cc45)CC3)c(O)cc21)N1CCN(S(C)(=O)=O)CC1 [Compound 160] | 0.05 to 0.25 µM |
| [2H]C1([2H])N(C(C)Cn2c(C#N)cc3c(C)c(CN4CCC(Nc5ncnc6sc(CC(F)(F)F)cc56)CC4)ccc32)C([2H])([2H])C([2H])([2H])N(S(C)(=O)=O)C1([2H])[2H] (centres unmarked) [Compound 161] | 0.05 to 0.25 µM |
| Cc1c(CN2CCC(Nc3ncnc4sc(CC(F)(F)F)cc34)CC2)ccc2c1cc(C#N)n2C[C@H](C)N1CCN(S(C)(=O)=O)[C@@H](C(N)=O)C1 [Compound 164] | 0.05 to 0.25 µM |
| Cc1c(CN2CCC(Nc3nc(N)nc4sc(CC(F)(F)F)cc34)CC2)ccc2c1cc(C#N)n2C[C@H](C)N1CCN(C(C)C)CC1 [Compound 166] | < 0.05 µM |
| Cc1c(CN2CCC(Nc3nc(N)nc4sc(CC(F)(F)F)cc34)CC2)ccc2c1cc(C#N)n2C[C@@H](C)N1CCN(S(C)(=O)=O)CC1 [Compound 167] | 0.05 to 0.25 µM |
| Cc1c(CN2CCC(Nc3nc(N)nc4sc(CC(F)(F)F)cc34)CC2)ccc2c1cc(C#N)n2C[C@H](C)N1CCC(F)(F)CC1 [Compound 168] | 0.05 to 0.25 µM |
| Cc1c(CN2CCC(Nc3ncnc4sc(CC(F)(F)F)cc34)CC2)ccc2c1cc(C#N)n2CC(C)N1CC(NS(C)(=O)=O)C1 (centres unmarked) [Compound 169] | 0.02 to 1 µM |
| Cc1c(CN2CCC(Nc3nc(N(C)C)nc4sc(CC(F)(F)F)cc34)CC2)ccc2c1cc(C#N)n2C[C@H](C)N1CCN(S(C)(=O)=O)CC1 [Compound 170] | > 1 µM |
| Cc1c(CN2CCC(Nc3nc(C4CC4)nc4sc(CC(F)(F)F)cc34)CC2)ccc2c1cc(C#N)n2C[C@H](C)N1CCN(S(C)(=O)=O)CC1 [Compound 173] | 0.02 to 1 µM |
| Cc1nc(NC2CCN(Cc3ccc4c(cc(C#N)n4C[C@H](C)N4CCN(CC(N)=O)CC4)c3C)CC2)c2cc(CC(F)(F)F)sc2n1 [Compound 178] | < 0.05 µM |
| Cc1c(CN2CCC(Nc3nc(N)nc4sc(CC(F)(F)F)cc34)CC2)ccc2c1cc(C#N)n2C[C@H](C)N1C[C@@H](C)N(S(C)(=O)=O)[C@H](C)C1 [Compound 179] | 0.05 to 0.25 µM |
| Cc1c(CN2CCC(Nc3nc(N)nc4sc(CC(F)(F)F)cc34)CC2)ccc2c1cc(C#N)n2C[C@@H](C)N1C[C@@H](C)N(S(C)(=O)=O)[C@H](C)C1 [Compound 180] | 0.05 to 0.25 µM |
| CNc1nc(NC2CCN(Cc3ccc4c(cc(C#N)n4C[C@H](C)N4CCN(CC(N)=O)CC4)c3C)CC2)c2cc(CC(F)(F)F)sc2n1 [Compound 182] | < 0.05 µM |
| CNS(=O)(=O)C1CCN([C@@H](C)Cn2c(C#N)cc3c(C)c(CN4CCC(Nc5nc(N)nc6sc(CC(F)(F)F)cc56)CC4)ccc32)CC1 [Compound 184] | < 0.05 µM |
| CNc1nc(NC2CCN(Cc3ccc4c(cc(C#N)n4C[C@H](C)N4CCC(S(=O)(=O)NC)CC4)c3C)CC2)c2cc(CC(F)(F)F)sc2n1 [Compound 185] | 0.05 to 0.25 µM |
| CNS(=O)(=O)C1CCN([C@@H](C)Cn2c(C#N)cc3c(C)c(CN4CCC(Nc5nc(C)nc6sc(CC(F)(F)F)cc56)CC4)ccc32)CC1 [Compound 186] | < 0.05 µM |
| Cc1c(CN2CCC(Nc3nc(N)nc4sc(CC(F)(F)F)cc34)CC2)ccc2c1cc(C#N)n2C[C@H](C)N1CCN(S(=O)(=O)CCO)CC1 [Compound 187] | < 0.05 µM |
| Cc1c(CN2CCC(Nc3nc(N)nc4sc(CC(F)(F)F)cc34)CC2)ccc2c1cc(C#N)n2C[C@H](C)N1CCOCC1 [Compound 188] | 0.05 to 0.25 µM |
| CNC(=O)CN1CCN([C@@H](C)Cn2c(C#N)cc3c(C)c(CN4CCC(Nc5nc(NC)nc6sc(CC(F)(F)F)cc56)CC4)ccc32)CC1 [Compound 189] | < 0.05 µM |

| Structure (SMILES) | IC50 |
| --- | --- |
| Cc1c(CN2CCC(Nc3nc(N)nc4sc(CC(F)(F)F)cc34)CC2)ccc2c1cc(C#N)n2C[C@H](C)N1CCN(C2CC2)CC1 [Compound 190] | 0.05 to 0.25 µM |
| CNc1nc(NC2CCN(Cc3ccc4c(cc(C#N)n4C[C@H](C)N4CCN(CC(=O)N(C)C)CC4)c3C)CC2)c2cc(CC(F)(F)F)sc2n1 [Compound 191] | < 0.05 µM |
| CNc1nc(NC2CCN(Cc3ccc4c(cc(C#N)n4C[C@H](C)N4CCN(S(=O)(=O)NC)CC4)c3C)CC2)c2cc(CC(F)(F)F)sc2n1 [Compound 192] | < 0.05 µM |
| CNc1nc(NC2CCN(Cc3ccc4c(cc(C#N)n4C[C@H](C)N4CCC(S(C)(=O)=O)CC4)c3C)CC2)c2cc(CC(F)(F)F)sc2n1 [Compound 193] | < 0.05 µM |
| CNc1nc(NC2CCN(Cc3cc4cc(C#N)n(C[C@H](C)N5CCN(S(C)(=O)=O)CC5)c4cc3O)CC2)c2cc(CC(F)(F)F)sc2n1 [Compound 194] | < 0.05 µM |
| CNc1nc(NC2CCN(Cc3ccc4c(cc(C#N)n4C[C@H](C)N4CCC(F)(F)CC4)c3C)CC2)c2cc(CC(F)(F)F)sc2n1 [Compound 195] | 0.05 to 0.25 µM |
| CNc1nc(NC2CCN(Cc3ccc4c(cc(C#N)n4C[C@H](C)N4CCN(S(C)(=O)=O)[C@H](C(=O)N(C)C)C4)c3C)CC2)c2cc(CC(F)(F)F)sc2n1 [Compound 196] | < 0.05 µM |
| CNC(=O)[C@@H]1CN([C@@H](C)Cn2c(C#N)cc3c(C)c(CN4CCC(Nc5nc(NC)nc6sc(CC(F)(F)F)cc56)CC4)ccc32)CCN1S(C)(=O)=O [Compound 197] | < 0.05 µM |
| CNc1nc(NC2CCN(Cc3ccc4c(cc(C#N)n4C[C@H](C)N4CCN(S(=O)(=O)CF)CC4)c3C)CC2)c2cc(CC(F)(F)F)sc2n1 [Compound 198] | 0.05 to 0.25 µM |
| CCOC(=O)c1c(CC(F)(F)F)sc2ncnc(NC3CCN(Cc4ccc5c(cc(C#N)n5C[C@H](C)N5CCN(S(C)(=O)=O)CC5)c4C)CC3)c12 [Compound 200] | > 1 µM |
| Cc1nc(NC2CCN(Cc3ccc4c(cc(C#N)n4C[C@@H](C)N4CCN(S(C)(=O)=O)CC4)c3C)CC2)c2cc(CC(F)(F)F)sc2n1 [Compound 201] | 0.02 to 1 µM |
| CNc1nc(NC2CCN(Cc3ccc4c(cc(C#N)n4C[C@H](C)N4CCC(CC(=O)N(C)C)CC4)c3C)CC2)c2cc(CC(F)(F)F)sc2n1 [Compound 202] | < 0.05 µM |
| CNc1nc(NC2CCN(Cc3ccc4c(cc(C#N)n4C[C@H](C)N4CCC(CC(N)=O)CC4)c3C)CC2)c2cc(CC(F)(F)F)sc2n1 [Compound 204] | < 0.05 µM |
| CNC(=O)CC1CCN([C@@H](C)Cn2c(C#N)cc3c(C)c(CN4CCC(Nc5nc(NC)nc6sc(CC(F)(F)F)cc56)CC4)ccc32)CC1 [Compound 206] | < 0.05 µM |
| CNc1nc(NC2CCN(Cc3ccc4c(cc(C#N)n4C[C@H](C)N4CCN(S(C)(=O)=O)[C@H](C#N)C4)c3C)CC2)c2cc(CC(F)(F)F)sc2n1 [Compound 209] | < 0.05 µM |
| CCS(=O)(=O)N1CCN([C@@H](C)Cn2c(C#N)cc3c(C)c(CN4CCC(Nc5nc(NC)nc6sc(CC(F)(F)F)cc56)CC4)ccc32)CC1 [Compound 210] | < 0.05 µM |
| CNc1nc(NC2CCN(Cc3ccc4c(cc(C#N)n4C[C@H](C)N4CCN(S(=O)(=O)C5CC5)CC4)c3C)CC2)c2cc(CC(F)(F)F)sc2n1 [Compound 211] | 0.05 to 0.25 µM |
| C=CC(=O)NC1CCN([C@@H](C)Cn2c(C#N)cc3c(C)c(CN4CCC(Nc5nc(NC)nc6sc(CC(F)(F)F)cc56)CC4)ccc32)CC1 [Compound 212] | < 0.05 µM |
| CCC(=O)NC1CCN([C@@H](C)Cn2c(C#N)cc3c(C)c(CN4CCC(Nc5nc(NC)nc6sc(CC(F)(F)F)cc56)CC4)ccc32)CC1 [Compound 213] | < 0.05 µM |
| CNc1nc(NC2CCN(Cc3ccc4c(cc(C#N)n4C[C@H](C)N4CCOC(C(=O)N(C)C)C4)c3C)CC2)c2cc(CC(F)(F)F)sc2n1 (some centres unmarked) [Compound 215] | < 0.05 µM |
| CNc1nc(NC2CCN(Cc3ccc4c(cc(C#N)n4C[C@H](C)N4CCOC(C(N)=O)C4)c3C)CC2)c2cc(CC(F)(F)F)sc2n1 (some centres unmarked) [Compound 216] | < 0.05 µM |
| Cc1nc(NC2CCN(Cc3ccc4c(cc(C#N)n4C[C@H](C)N4CCS(=O)(=O)CC4)c3C)CC2)c2cc(CC(F)(F)F)sc2n1 [Compound 219] | < 0.05 µM |
| CNC(=O)CC1CCN([C@@H](C)Cn2c(C#N)cc3c(C)c(CN4CCC(Nc5nc(C)nc6sc(CC(F)(F)F)cc56)CC4)ccc32)CC1 [Compound 220] | < 0.05 µM |
| Cc1nc(NC2CCN(Cc3ccc4c(cc(C#N)n4C[C@H](C)N4CCC(CC(=O)N(C)C)CC4)c3C)CC2)c2cc(CC(F)(F)F)sc2n1 [Compound 221] | < 0.05 µM |
| Cc1c(CN2CCC(Nc3nc(F)nc4sc(CC(F)(F)F)cc34)CC2)ccc2c1cc(C#N)n2C[C@H](C)N1CCN(S(C)(=O)=O)CC1 [Compound 222] | < 0.05 µM |
